pIC50: −log10 of the molar value.
Columns and labels:
[1] = target: T1, GST-RIPK2 fusion protein (human RIPK2, amino acids 1-310) (Homo sapiens, UniProt O43353); assay: RIPK2 binding competition assay (TR-FRET, Tracer 199 displacement); conditions: 10 nM Tracer 199, 1 nM GST-RIPK2, read-out: RIPK2 IC50
T1 construct: made in house; host or cells: baculovirus infected Sf9 cells
In short: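 GST-RIPK2 (human aa 1-310, Sf9-expressed; final 1 nM) with Tracer 199 (final 10 nM) and Tb-anti-GST (final 0.5 nM) in Tris pH 7.5 buffer, 45 min at 22 °C. TR-FRET 665/620 nm ratio after 337 nm excitation; normalized to no-inhibitor (0%) and no-protein (−100%), giving IC50.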

[2] = target: T2, binding of His-XIAP(BIR2)-avi fusion protein to GST-RIPK2 fusion protein (RIPK2/XIAP) (Homo sapiens, UniProt O43353); assay: RIPK2-XIAP binding competition PPI assay (TR-FRET); conditions: RIPK2/XIAP binding competition PPI assay; for Emax: Amax, read-out: PPI Amax bin; for pIC50: read-out: PPI IC50 bin
T2 construct: made in house; host or cells: baculovirus infected Sf9 cells
In short: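 Compounds (in DMSO, 100-fold stock) incubated 120 min at 23 °C with 1 nM GST-RIPK2 (aa 1-310) and 25 nM His-XIAP(BIR2 aa 152-231)-avi, plus anti-His-XL665 and anti-GST-Tb, in pH 7.5 Tris buffer. Read-out: 665/520 nm emission ratio. Normalized to no-inhibitor (0%) and 50 nM GSK583 (−100%); Amax binned A–D.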

[3] = system: NF-κB pathway (SEAP) in THP1-Dual cells; assay: THP-1 Dual cell SEAP assay (L18-MDP stimulated); assay type: cell-based; conditions: Homo sapiens, THP1-Dual, read-out: NF-κB THP1 IC50 bin
In short: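 THP1-Dual cells (~25,000/well) were preincubated 30 min with serially diluted compounds, then stimulated with 10 ng/mL L18-MDP (final) for 20-24 h at 37 °C. Supernatant SEAP was read with QUANTI-Blue at OD 620-655 nm after 2 h. IC50 came from non-linear fits of % inhibition versus DMSO/L18-MDP controls after media-blank subtraction.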

T2 sequence (O43353 1-310 limits assumed): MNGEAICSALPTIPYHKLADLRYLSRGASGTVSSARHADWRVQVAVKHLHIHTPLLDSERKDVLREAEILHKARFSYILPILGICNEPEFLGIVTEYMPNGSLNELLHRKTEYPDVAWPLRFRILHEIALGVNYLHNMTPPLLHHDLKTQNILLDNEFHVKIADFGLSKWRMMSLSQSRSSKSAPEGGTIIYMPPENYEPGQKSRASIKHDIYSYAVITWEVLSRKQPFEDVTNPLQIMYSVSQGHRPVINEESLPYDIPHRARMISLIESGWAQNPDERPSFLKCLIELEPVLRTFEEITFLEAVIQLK
T1 sequence (O43353 1-310): as the sequence (O43353 1-310 limits assumed) above

SMILES	pIC50 [1]	Emax [2]	pIC50 [2]	pIC50 [3]
COc1c(F)cc(-c2cnc3cc(OC[C@@H](C)O)c(S(=O)(=O)C(C)(C)C)cn23)cc1NS(=O)(=O)c1cnn(C)c1 [Example 253, (R)-N-(5-(6-(tert-butylsulfonyl)-7-(2-hydroxypropoxy)imidazo [1,2-a]pyridin-3-yl)-3-fluoro-2-methoxyphenyl)-1-methyl-1H-pyrazole-4-sulfonamide]	8.60 to 9.00	> 80%	> 9.00	> 7.30
COc1cc2ncc(-c3ccc4sc(N)nc4c3)n2cc1S(=O)(=O)C(C)(C)C [Example 105, 5-(6-(tert-butylsulfonyl)-7-methoxyimidazo[1,2-a]pyridin-3-yl)benzo[d]thiazol-2-amine]	< 7.70	30 to 55%	< 7.70	< 6.00
CC(C)(C)S(=O)(=O)c1cn2c(-c3cc(F)c(N)nc3F)cnc2cc1OCC(F)(F)CN [Example 202, 5-(7-(3-amino-2,2-difluoropropoxy)-6-(tert-butylsulfonyl)imidazo [1,2-a]pyridin-3-yl)-3,6-difluoropyridin-2-amine]	8.60 to 9.00	> 80%	8.60 to 9.00	6.60 to 7.30
CN(C)CCOc1cc2ncc(-c3cc(F)c(N)nc3F)n2cc1S(=O)(=O)C(C)(C)C [Example 20, 5-(6-(tert-butylsulfonyl)-7-(2-(dimethylamino)ethoxy)imidazo[1,2-a]pyridin-3-yl)-3,6-difluoropyridin-2-amine]	7.70 to 8.60	> 80%	< 7.70	< 6.00
CCCS(=O)(=O)Nc1cc(-c2cnc3cc(OC)c(S(=O)(=O)C(C)(C)CO)cn23)cc(OC)c1OC [Example 59, N-(5-(6-((1-hydroxy-2-methylpropan-2-yl)sulfonyl)-7-methoxyimidazo[1,2-a]pyridin-3-yl)-2,3-dimethoxyphenyl)propane-1-sulfonamide]	> 9.00	> 80%	> 9.00	> 7.30
COc1cc2ncc(-c3cccc(NS(=O)(=O)C4CCNCC4)c3)n2cc1S(=O)(=O)C(C)(C)C [Example 158, N-(3-(6-(tert-butylsulfonyl)-7-methoxyimidazo[1,2-a]pyridin-3-yl)phenyl)piperidine-4-sulfonamide]	< 7.70	> 80%	< 7.70	< 6.00
COCCN1CCC(C)(S(=O)(=O)c2cn3c(-c4cc(F)c(N)nc4F)cnc3cc2OC)CC1 [Example 125, 3,6-difluoro-5-(7-methoxy-6-((1-(2-methoxyethyl)-4-methylpiperidin-4-yl)sulfonyl)imidazo[1,2-a]pyridin-3-yl)pyridin-2-amine]	7.70 to 8.60	> 80%	7.70 to 8.60	6.00 to 6.60
COc1cc2ncc(-c3cc(F)c(N)nc3F)n2cc1C1CCCN(C)C1=O (centres unmarked) [Example 213, 3-(3-(6-amino-2,5-difluoropyridin-3-yl)-7-methoxyimidazo[1,2-a]pyridin-6-yl)-1-methylpiperidin-2-one]	< 7.70	55 to 80%	< 7.70	< 6.00
COc1cc2ncc(-c3cc(F)c(N)nc3F)n2cc1S(=O)(=O)C(C)(C)CCO [Example 62, 3-((3-(6-amino-2,5-difluoropyridin-3-yl)-7-methoxyimidazo[1,2-a]pyridin-6-yl)sulfonyl)-3-methylbutan-1-ol]	7.70 to 8.60	> 80%	7.70 to 8.60	6.00 to 6.60
CC(C)(C)S(=O)(=O)c1cn2c(-c3cnc4nccn4c3)cnc2cc1OCCO [Example 235, 2-((6-(tert-butylsulfonyl)-3-(imidazo[1,2-a]pyrimidin-6-yl)imidazo[1,2-a]pyridin-7-yl)oxy)ethan-1-ol]	< 7.70	< 30%	< 7.70	< 6.00
CC(C)(C)S(=O)(=O)c1cn2c(-c3ccc4nccn4c3)cnc2cc1OCCO [Example 208, 2-((6-(tert-butylsulfonyl)-[3,6′-biimidazo[1,2-a]pyridin] -7-yl)oxy)ethan-1-ol]	7.70 to 8.60	< 30%	< 7.70	< 6.00

Reference: patent publication US20260137706A1, “METHODS OF TREATING INFLAMMATORY DISEASES” (INTERLINE THERAPEUTICS, INC., priority 2023, published 2026)
